Results on 12 compounds are retold here after US9840498B2, “Substituted quinazolin-4-one derivatives” (NOVARTIS AG, priority 2013, dated 2017).

Each structure is given as a SMILES string.

For this assay, the target named is PI3K delta (Homo sapiens (Human), UniProt O00329). The assay can be described thus: Biochemical assay for PI3Kdelta (Adapta TR-FRET format). To be noted: enzymatic assay. The source says: For the enzymatic assays, the preparation of PI3K gene constructs, protein expression and purification for HTS are described in WO2012/004299. […] The TR-FRET Adapta™ Universal Kinase Assay Kit was purchased from Invitrogen Corporation (Carlsbad/CA, USA) (Cat. No. PV5099). The kit contains the following reagents: Adapta Eu-anti-ADP Antibody (Europium labeled anti-ADP antibody in HEPES buffered saline, Cat. No. PV5097), Alexa Fluor® 647-labeled ADP tracer (Alexa Fluor® 647-labeled ADP tracer in HEPES buffered saline, Cat. No. PV5098), proprietary TR-FRET dilution buffer pH 7.5 (Cat. No. PV3574). PIK3CD substrate Phosphatidylinositol was obtained from Invitrogen (vesicules consisting of 2 mM PI in 50 mM HEPES pH7.5; Cat. No. PV5371). PIK3CG substrate Phosphatidylinositol-4,5-bisphosphate (PIP(4,5)2 was obtained from Invitrogen (PIP2:PS large unilamellar vesicules consisting of 1 mM PI P2: 19 mM PS in 50 mM HEPES pH7.5, 3 mM MgCl2, 1 mM EGTA; Cat. No. PV5100). Time-Resolved Fluorescence Resonance Energy Transfer (TR-FRET) is a technology based on energy transfer between two adjacent dyes, from an excited electron in one dye (the donor) to an electron of an adjacent dye (the acceptor) through resonance, then released as a photon. This energy transfer is detected by an increase in the fluorescence emission of the acceptor, and a decrease in the fluorescence emission of the donor. TR-FRET assays for protein kinases use a long-lifetime lanthanide Terbium or Europium chelates as the donor species which overcome interference from compound autofluorescence or light scatter from precipitated compounds, by introducing a delay after excitation by a flashlamp excitation source. Results are often expressed as a ratio of the intensities of the acceptor and donor fluorophores. The ratiometric nature of such a value corrects for differences in assay volumes between wells, as well as corrects for quenching effects due to colored compounds. The Adapta™ assay can be divided into two phases: a kinase reaction phase and an ADP detection phase. In the kinase reaction phase, all kinase reaction components are added to the well and the reaction is allowed to incubate for a set period of time specific for each kinase. After the reaction, a detection solution of Eu-labeled anti-ADP antibody, Alexa Fluor® 647-labeled ADP tracer, and EDTA (to stop the kinase reaction) are added to the assay well. ADP formed by the kinase reaction will displace the Alexa Fluor® 647-labeled ADP tracer from the antibody, resulting in a decrease in TR-FRET signal. In the presence of an inhibitor, the amount of ADP formed by the kinase reaction is reduced, and the resulting intact antibody-tracer interaction maintains a high TR-FRET signal. In the Adapta™ assay, the donor (Europium-anti-ADP antibody) is excited at 340 nm and will transfer its energy to the acceptor (Alexa Fluor® 647-labeled ADP tracer). The emission from the Alexa Fluor® 647 can be monitored with a filter centered at 665 nm because it is located between the emission peaks of the donor, which is measured at 615/620 nm. 50 nL of compound dilutions were dispensed onto white 384-well small volume polystyrene plate as described in section 2.2. Then 5 μL of PI3Kgamma and PI3Kdelta and lipid substrate (PI or PIP2:PS) followed by 5 μL of ATP (final assay volume 10 μL) are incubated at RT. […] Reactions were stopped with 5 μL of a mixture of EDTA containing the Eu-labeled anti-ADP antibody and the Alexa Fluor® 647-labeled ADP tracer in TR-FRET dilution buffer (proprietary to IVG). Plates are read 15 to 60 mins later in a Synergy2 reader using an integration time of 0.4 seconds and a delay of 0.05 seconds. […] The control for the 0% inhibition was given by the solvent vehicle of the compounds (90% DMSO in H2O). Data are analyzed using Excel fit software or Graphpad Prism. EC50 values were derived by fitting a sigmoidal dose-response curve to a plot of assay readout over inhibitor concentration. […]
Chain of PI3K delta (O00329 2-1044): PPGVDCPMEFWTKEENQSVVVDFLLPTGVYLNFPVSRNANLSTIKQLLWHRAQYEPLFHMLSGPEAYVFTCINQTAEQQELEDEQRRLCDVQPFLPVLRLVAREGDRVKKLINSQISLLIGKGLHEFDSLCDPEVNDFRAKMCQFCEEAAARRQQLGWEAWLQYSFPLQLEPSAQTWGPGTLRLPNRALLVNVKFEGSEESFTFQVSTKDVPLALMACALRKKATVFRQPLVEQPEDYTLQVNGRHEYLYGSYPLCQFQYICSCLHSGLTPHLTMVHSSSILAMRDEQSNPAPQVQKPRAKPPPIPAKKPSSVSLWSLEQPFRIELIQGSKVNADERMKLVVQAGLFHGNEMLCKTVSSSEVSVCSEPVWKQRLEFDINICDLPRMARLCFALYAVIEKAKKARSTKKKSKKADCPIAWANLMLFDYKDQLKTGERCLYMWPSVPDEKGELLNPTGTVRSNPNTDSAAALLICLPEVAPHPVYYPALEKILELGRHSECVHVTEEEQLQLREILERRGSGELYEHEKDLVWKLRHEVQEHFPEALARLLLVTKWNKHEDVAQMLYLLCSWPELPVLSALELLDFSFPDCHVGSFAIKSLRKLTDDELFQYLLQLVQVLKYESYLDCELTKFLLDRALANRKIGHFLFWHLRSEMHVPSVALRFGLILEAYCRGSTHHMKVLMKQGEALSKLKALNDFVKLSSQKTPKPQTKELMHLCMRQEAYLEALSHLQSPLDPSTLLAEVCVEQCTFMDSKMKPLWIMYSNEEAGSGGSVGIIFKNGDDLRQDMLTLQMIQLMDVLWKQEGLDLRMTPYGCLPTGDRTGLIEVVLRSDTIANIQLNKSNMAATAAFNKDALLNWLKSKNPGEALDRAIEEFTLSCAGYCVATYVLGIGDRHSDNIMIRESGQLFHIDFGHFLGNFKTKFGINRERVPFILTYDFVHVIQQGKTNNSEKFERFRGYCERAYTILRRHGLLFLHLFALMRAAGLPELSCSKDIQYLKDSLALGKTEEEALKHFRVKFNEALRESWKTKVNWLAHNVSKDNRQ
Chain of PI3K delta (P27986 461-568 partner): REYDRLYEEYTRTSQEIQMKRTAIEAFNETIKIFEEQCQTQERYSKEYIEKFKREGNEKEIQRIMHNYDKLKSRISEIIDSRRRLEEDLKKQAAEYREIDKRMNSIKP
What is called IC50 is the concentration that gives 50% inhibition. With `COc1ccc(-c2cccc3nc([C@@H]4CCCN4c4nc(N)nc(C)c4C#N)n(-c4ccccc4)c(=O)c23)cn1` [Example 21, (S)-2-Amino-4-(2-(5-(6-methoxypyridin-3-yl)-4-oxo-3-phenyl-3,4-dihydroquinazolin-2-yl)pyrrolidin-1-yl)-6-methylpyrimidine-5-carbonitrile], the half-maximal inhibitory concentration (IC50) is 24 nM.

For `COc1ncc(-c2cccc3nc([C@@H]4C[C@H](O)CN4c4nc(N)nc(C)c4C#N)n(-c4ccccc4)c(=O)c23)cn1` [Example 22, 2-Amino-4-((2S,4S)-4-hydroxy-2-(5-(2-methoxypyrimidin-5-yl)-4-oxo-3-phenyl-3,4-dihydroquinazolin-2-yl)pyrrolidin-1-yl)-6-methylpyrimidine-5-carbonitrile], the IC50 stood at 5 nM.

For `Cc1nc(N)nc(N2C[C@@H](O)C[C@H]2c2nc3cccc(-c4cccnc4)c3c(=O)n2-c2ccccc2)c1C#N` [Example 24, 2-Amino-4-((2S,4S)-4-hydroxy-2-(4-oxo-3-phenyl-5-(pyridin-3-yl)-3,4-dihydroquinazolin-2-yl)pyrrolidin-1-yl)-6-methylpyrimidine-5-carbonitrile], the IC50 came out at 5 nM.

For `COc1cncc(-c2cccc3nc([C@@H]4C[C@H](O)CN4c4nc(N)nc(C)c4C#N)n(-c4ccccc4)c(=O)c23)c1` [Example 25, 2-Amino-4-((2S,4S)-4-hydroxy-2-(5-(5-methoxypyridin-3-yl)-4-oxo-3-phenyl-3,4-dihydroquinazolin-2-yl)pyrrolidin-1-yl)-6-methylpyrimidine-5-carbonitrile], the concentration for half-maximal inhibition (IC50) stood at 5 nM.

Turning to `Cc1nc(N)nc(N2C[C@@H](O)C[C@H]2c2nc3cccc(-c4cncnc4)c3c(=O)n2-c2ccccc2)c1C#N` [Example 26, 2-Amino-4-((2S,4S)-4-hydroxy-2-(4-oxo-3-phenyl-5-(pyrimidin-5-yl)-3,4-dihydroquinazolin-2-yl)pyrrolidin-1-yl)-6-methylpyrimidine-5-carbonitrile], the IC50 is 6 nM.

In the case of `COc1ccc(-c2cccc3nc([C@@H]4C[C@H](O)CN4c4nc(N)nc(C)c4C#N)n(-c4ccccc4)c(=O)c23)cn1` [Example 27, 2-Amino-4-((2S,4S)-4-hydroxy-2-(5-(6-methoxypyridin-3-yl)-4-oxo-3-phenyl-3,4-dihydroquinazolin-2-yl)pyrrolidin-1-yl)-6-methylpyrimidine-5-carbonitrile], the IC50 was 10 nM.

In the case of `Cc1nc(N)nc(N2C[C@@H](O)C[C@H]2c2nc3cccc(-c4cnn(CCO)c4)c3c(=O)n2-c2ccccc2)c1C#N` [Example 28, 2-Amino-4-((2S,4S)-4-hydroxy-2-(5-(1-(2-hydroxyethyl)-1H-pyrazol-4-yl)-4-oxo-3-phenyl-3,4-dihydroquinazolin-2-yl)pyrrolidin-1-yl)-6-methylpyrimidine-5-carbonitrile], the IC50 was determined as 10 nM.

With `CCOc1ncc(-c2c(F)ccc3nc([C@@H]4C[C@H](O)CN4c4nc(N)nc(C)c4C#N)n(-c4ccccc4)c(=O)c23)cn1` [Example 29, 2-Amino-4-((2S,4S)-2-(5-(2-ethoxypyrimidin-5-yl)-6-fluoro-4-oxo-3-phenyl-3,4-dihydroquinazolin-2-yl)-4-hydroxypyrrolidin-1-yl)-6-methylpyrimidine-5-carbonitrile], the IC50 turned out to be 4 nM.

Turning to `Cc1nc(N)nc(N2C[C@@H](F)C[C@H]2c2nc3cccc(-c4cnn(C)c4)c3c(=O)n2-c2ccccc2)c1C#N` [Example 30, 2-Amino-4-((2S,4S)-4-fluoro-2-(5-(1-methyl-1H-pyrazol-4-yl)-4-oxo-3-phenyl-3,4-dihydroquinazolin-2-yl)pyrrolidin-1-yl)-6-methylpyrimidine-5-carbonitrile], the half-maximal inhibitory concentration (IC50) was 14 nM.

With `Cc1nc(N)nc(N2C[C@@H](O)C[C@H]2c2nc3ccc(F)c(-c4cn(C)cn4)c3c(=O)n2-c2ccccc2)c1C#N` [Example 31, 2-Amino-4-((2S,4S)-2-(6-fluoro-5-(1-methyl-1H-imidazol-4-yl)-4-oxo-3-phenyl-3,4-dihydroquinazolin-2-yl)-4-hydroxypyrrolidin-1-yl)-6-methylpyrimidine-5-carbonitrile], the IC50 is 13 nM.

Take `CCOc1ncc(-c2cccc3nc([C@@H]4CCCN4c4nc(N)nc(C)c4C#N)n(-c4ccccc4)c(=O)c23)cn1` [Example 32, (S)-2-Amino-4-(2-(5-(2-ethoxypyrimidin-5-yl)-4-oxo-3-phenyl-3,4-dihydroquinazolin-2-yl)pyrrolidin-1-yl)-6-methylpyrimidine-5-carbonitrile]: the IC50 worked out at 5 nM.

As to `N#Cc1c(N)ncnc1N1CCC[C@H]1c1nc2cccc(C#CCO)c2c(=O)n1-c1ccccc1` [Example 33, (S)-4-Amino-6-(2-(5-(3-hydroxyprop-1-yn-1-yl)-4-oxo-3-phenyl-3,4-dihydroquinazolin-2-yl)pyrrolidin-1-yl)pyrimidine-5-carbonitrile], the IC50 stood at 13 nM.
